Experiments:
Format in all cases: cell-based
[1] = tested on: T47D cells; assay: Cell antiproliferative activity assay (CCK-8), T47D; conditions: Homo sapiens, 72 h, breast cancer cell line T47D, incubation for 3 days
Procedure: (§1) BRK-BaF3, WT-BaF3, WEHI cell line, and breast cancer cell line T47D were cultured using RPMI 1640 Basal medium or DMEM (Dulbecco's Modified Eagle Medium) (Shanghai Peiyuan Biotechnology, L220KJ), supplemented with 10% FBS (Gibco, REF 10099-141C) and 1% P/S (Shanghai Peiyuan Biotechnology, S110JV), in an incubator (Thermo 3020) at 37°C with 5% CO2. Cell viability was above 95%. Cells were passaged at a 3:1 ratio every 3-4 days. For WT-BaF3 cells, WEHI cells were first cultured, and their culture supernatant was filtered through a 0.22 µm filter. This supernatant was added at 10% to the regular culture medium to supplement IL-3 required for WT-BaF3 cell proliferation, which served as the culture medium for WT-BaF3. For testing, cells were first collected and counted, then prepared into a cell suspension at 100,000 cells/mL and plated at 100 µL per well. Drug concentrations started from 10 µM and were serially diluted 3:1. After incubation for 3 days, 20 µL of CCK-8 detection reagent (Targetmol C005) was added to each well. After incubation for 2-4 hours, OD450 was measured using a microplate reader (Varioskan LUX, Thermo Scientific). After subtracting the blank background, the curve was fitted and the IC50 was calculated using XLfit software.
In addition, the following table exemplarily lists the IC50 values of some compounds of the present invention against T47D cells.

[2] = tested on: WT-BaF3 cells; assay: Cell antiproliferative activity assay (CCK-8), WT-BaF3 (broad-spectrum cytotoxicity); conditions: 72 h; WT-BaF3 cells (IL-3 supplemented), CCK-8, 3 days incubation
Procedure: The activity of compounds against BRK kinase can be evaluated by their inhibition of the growth of the BRK kinase-stably transfected BaF3 cell line (BRK-BaF3) and wild-type BaF3 cells (WT-BaF3). […] The larger the ratio of the half-maximal growth inhibitory concentration (IC50) of a compound between WT-BaF3 and BRK-BaF3 cells, the better the selectivity of the compound.
as §1

[3] = tested on: BRK-BaF3 cells; assay: Cell antiproliferative activity assay (CCK-8), BRK-BaF3; conditions: 72 h, CCK-8, 3 days incubation
Summary of the method: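 Growth inhibition over 3 days, with compound serially diluted 3-fold from a 10 µM top concentration. Cells seeded at 100,000 cells/mL; WT-BaF3 medium carried 10% WEHI supernatant as the IL-3 source. Viability read by CCK-8 OD450 after 2-4 h; IC50 from blank-subtracted curve fit.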

Row | Structure (SMILES) | IC50 [1] [nM] | IC50 [2] [nM] | IC50 [3] [nM]
1 | COc1cc(Nc2ncc3cc(-c4nccnc4C)cc(C(C)C)c3n2)ccc1P(C)(C)=O [II-16] | ≤ 500 | 500 to 2500 | ≤ 20
2 | Cc1nccnc1-c1cc(C(C)C)c2nc(Nc3ccc(P(C)(C)=O)c(C)c3F)ncc2c1 [II-18] | 500 to 1000 | > 2500 | ≤ 20
3 | COc1cc(Nc2ncc3cc(-c4nccnc4C)cc(C(C)C)c3n2)c(F)cc1P(C)(C)=O [II-22] | ≤ 500 | 500 to 2500 | ≤ 20
4 | COc1cc(Nc2ncc3cc(-c4nccnc4C)cc(C4CC4)c3n2)ccc1P(C)(C)=O [II-33] | ≤ 500 | 100 to 500 | ≤ 20
5 | COc1cc(Nc2ncc3cc(-c4c(C)ncnc4C)cc(C4CC4)c3n2)ccc1P(C)(C)=O [II-62] | 500 to 1000 | 100 to 500 | ≤ 20
6 | COc1cc(Nc2ncc3cc(-c4cccnc4C)cc(C4CC4)c3n2)ccc1P(C)(C)=O [II-64] | ≤ 500 | 500 to 2500 | ≤ 20
7 | COc1cc(Nc2ncc3cc(-c4cccnc4)cc(C4CC4)c3n2)ccc1P(C)(C)=O [II-65] | ≤ 500 |  | 
8 | COc1cc(Nc2ncc3cc(-c4cnccc4C)cc(C4CC4)c3n2)ccc1P(C)(C)=O [II-66] | ≤ 500 |  | 
9 | COc1cc(Nc2ncc3cc(-c4nnccc4C)cc(C4CC4)c3n2)ccc1P(C)(C)=O [II-67] | ≤ 500 | 100 to 500 | ≤ 20
10 | COc1cc(Nc2ncc3cc(-c4nccnc4C)cc(C4CC4)c3n2)c(F)cc1P(C)(C)=O [II-70] | ≤ 500 | 500 to 2500 | 20 to 100
11 | Cc1nn(C)cc1Nc1ncc2cc(-c3c(C#N)cnn3C)cc(C(C)C)c2n1 [III-86] |  | > 2500 | ≤ 20
12 | Cc1nn(C)cc1Nc1ncc2cc(-c3c(C)ncnc3C)cc(C(C)C)c2n1 [III-93] |  | > 2500 | ≤ 20
13 | COCCn1cc(Nc2ncc3cc(-c4c(C)ncnc4C)cc(C(C)C)c3n2)c(C)n1 [III-94] |  | > 2500 | ≤ 20
14 | Cc1nn(C2COC2)cc1Nc1ncc2cc(-c3c(C)ncnc3C)cc(C(C)C)c2n1 [III-95] |  | 500 to 2500 | 20 to 100
15 | Cc1nn(CC(N)=O)cc1Nc1ncc2cc(-c3cncnc3C)cc(C(C)C)c2n1 [III-96] |  | > 2500 | 20 to 100
16 | Cc1nn(C2COC2)cc1Nc1ncc2cc(-c3c(C)ncnc3C)cc(C3CC3)c2n1 [III-98] |  | 500 to 2500 | 20 to 100
17 | Cc1nn(C2COC2)cc1Nc1ncc2cc(-c3nccnc3C)cc(C(C)C)c2n1 [III-104] |  | > 2500 | ≤ 20
18 | Cc1nn(C2CCN(C)CC2)cc1Nc1ncc2cc(-c3nccnc3C)cc(C(C)C)c2n1 [III-106] |  | 500 to 2500 | ≤ 20
19 | Cc1nccnc1-c1cc(C(C)C)c2nc(Nc3cnn(C4CCN(C)CC4)c3C)ncc2c1 [III-107] |  | > 2500 | ≤ 20
20 | Cc1nn(CCN)cc1Nc1ncc2cc(-c3nccnc3C)cc(C(C)C)c2n1 [III-108] |  | 100 to 500 | ≤ 20
21 | CCN(C)CCn1cc(Nc2ncc3cc(-c4nccnc4C)cc(C(C)C)c3n2)c(C)n1 [III-109] |  | > 2500 | ≤ 20
22 | COCCN(C)CCn1cc(Nc2ncc3cc(-c4nccnc4C)cc(C(C)C)c3n2)c(C)n1 [III-110] |  | > 2500 | ≤ 20
23 | Cc1nn(CC(N)=O)cc1Nc1ncc2cc(-c3nccnc3C)cc(C(C)C)c2n1 [III-111] |  | > 2500 | ≤ 20
24 | Cc1nn(CCN=S(C)(C)=O)cc1Nc1ncc2cc(-c3nccnc3C)cc(C(C)C)c2n1 [III-112] |  | > 2500 | 20 to 100
25 | Cc1nn(C2COC2)cc1Nc1ncc2cc(-c3nccnc3C)cc(C3CC3)c2n1 [III-113] |  | 500 to 2500 | ≤ 20
26 | Cc1nn(CC(N)=O)cc1Nc1ncc2cc(-c3nccnc3C)cc(C3CC3)c2n1 [III-114] |  | 500 to 2500 | ≤ 20
27 | Cc1nn(C)cc1Nc1ncc2cc(-c3cncc(F)c3C(N)=O)cc(C(C)C)c2n1 [III-127] |  | > 2500 | 20 to 100
28 | Cc1nn(CC(N)=O)cc1Nc1ncc2cc(-c3cccnc3C)cc(C(C)C)c2n1 [III-128] |  | > 2500 | ≤ 20

From patent EP4803513A1, “SUBSTITUTED QUINAZOLINE COMPOUND, PREPARATION METHOD THEREFOR, PHARMACEUTICAL COMBINATION THEREOF, AND USE THEREOF” (Hongyun Biotech Co., Ltd., priority 2023, dated 2025)
